How the values were obtained:
[1] = PK in Colo-205 subcutaneous tumor model of BALB/c nude mouse; type: in vivo; conditions: female, plasma, Colo-205 tumor-bearing nude mouse, PO QD 22 days, after last administration
Description: Test animal: female nude mouse (BALB/c), 8 mice/dose group/test compound, weight: 19-27 g/mouse.
COLO205 cancer cells were cultured in RPMI-1640 medium containing inactivated 10% fetal bovine serum, 100 U/mL penicillin, 100 μg/mL streptomycin and 2 mM glutamine, in a 37° C., 5% CO2 incubator. The initial concentration of cell culture was 5×10^5 cells/mL, and the cells were transferred to other bottles every 3 or 4 days and passaged. Tumor cells in exponential growth phase were used for in vivo tumor seeding.
COLO205 tumor cells suspended in PBS were seeded subcutaneously to right lateral thorax of experimental animal at 1×10^7 cells/0.1 mL, and the animal was sacrificed when the tumor grew to a volume of 800 mm^3 to 1000 mm^3; under aseptic conditions, tumors were peeled off, and necrotic tissues were removed; the well-grown tumor tissues were selected; the tumor cells were isolated and subjected to primary culture and proliferation, and then were subcutaneously seeded to animal. The tumor cells were passaged for two generations in mice by this method, and the primary culture cells were seeded subcutaneously to right lateral thorax of experimental animal, at 5×10^6 cells/0.1 mL per animal. When tumor grew to a volume of about 100 mm^3, the animals were grouped and administered. For oral administration, the administration volume is 0.1 mL/10 g body weight of animal.
Blood collection: blood was collected from intraocular canthus. After the last administration (22th Day) of control agent and compound 1, blood/tumor was collected at the same time points, wherein 8 nude mice for each dose group were divided into A and B groups
A group (No. 1-4): blood was collected at 15 min, 1 h and 2 h, and the mouse was sacrificed after blood collection at 2 h;
B group (No. 5-8): blood was collected at 4 h, 8 h and 24 h, and the mouse was sacrificed after blood collection at 24 h;
100 μL whole blood at each time point was collected and added to an anticoagulation tube containing K2EDTA, and centrifuged at 4500 r/min at 4° C. in a high speed centrifuge for 5 min to separate the plasma; the plasma was stored in a refrigerator at −80° C.
The plasma samples of control agent and compound 1 were analyzed by precipitation of protein: to 50 μL plasma, 150 μL internal standard (acetonitrile solution containing 50 ng/mL dexamethasone) was added; the resultant mixture was vortexed at 1500 r/min for 3 min, and centrifuged at 4000 r/min for 20 min; to 100 μL supernatant, 100 μL water was added; the resultant mixture was mixed homogeneously under vortexing and analyzed by LC-MS/MS.

[2] = Linear pharmacokinetics in rat (PO); type: in vivo, male SD rat; conditions: for AUC(0-t) / Cmax / Tmax: male, SD, plasma
Description: Test animal: male SD rat, 3 rats/administration dose/test compound, weight: 200-240 g/rat.
100 μL whole blood was collected from caudal vein at each time point, added to an anticoagulation tube containing K2EDTA, and centrifuged at 8000 r/min in a high speed centrifuge for 6 min to separate the plasma; the plasma was stored in a refrigerator at −80° C.
The plasma samples of control agent and compound 1 were analyzed by precipitation of protein: to 30 μL plasma, 200 μL internal standard (acetonitrile solution containing 50 ng/mL PD0332991, the formula of which is
[drawing 62] prepared by referring to the method in Patent CN101001857A) was added; the resultant mixture was vortexed for 10 min at 1500 r/min, and centrifuged for 20 min at 4000 r/min; to 100 μL supernatant, 100 μL water was added; the resultant mixture was mixed homogeneously under vortexing and analyzed by LC-MS/MS.

[3] = PK in U-87MG subcutaneous tumor model of BALB/c nude mouse; type: in vivo; conditions: female, plasma, U87MG tumor-bearing nude mouse, PO QD 3 weeks, after last administration (Day 22)
Description: Test animal: female nude mouse (BALB/c), 10 mice/dose group/test compound, weight: 18-22 g/mouse.
U87MG cells from ATCC were cultured in MEM medium containing 10% fetal bovine serum; the cells were digested with trypsin containing EDTA by conventional methods; the cells were passaged for two generations every week, and were continuously cultured in a 37° C., 5% CO2 incubator.
Tumor cells in exponential growth phase were collected; U87MG cells were adjusted with PBS and matrigel at a ratio of 1:1 to a concentration of 5×10^7/mL; 0.1 mL cell suspension was seeded subcutaneously to right back of each mouse by injection with a 1 mL syringe. Tumor volumes were observed and measured, and the average tumor volume of U87MG reached about 200 mm^3 8 days after seeding; the tumor-bearing mice were grouped and were treated by oral administration of test compounds, at a dose of 0.1 mL/10 g body weight.
Blood collection: blood was collected from intraocular canthus. After the last administration (Day 22) of control agent and compound 1, blood/tumor was collected at the same time points, wherein as to 10 nude mice for each dose group, one was for standby, and the other 9 mice were divided into three groups, i.e., A, B and C groups.
A group (No. 1-3): blood was collected before administration, and at 1 h and 2 h after administration, and the mouse was sacrificed after blood collection at 2 h;
B group (No. 4-6): blood was collected at 15 min, 4 h and 6 h after administration, and the mouse was sacrificed after blood collection at 6 h;
C group (No. 7-9): blood was collected at 30 min, 10 h and 24 h after administration, and the mouse was sacrificed after blood collection at 24 h;
300 μL whole blood was collected at each time point, added to an anticoagulation tube containing K2EDTA, and centrifuged at 8000 r/min in a high speed centrifuge for 6 min to separate the plasma; the plasma was stored in a refrigerator at −80° C.
The plasma samples of control agent and compound 1 were analyzed by precipitation of protein: 30 μL plasma was added to a 96-deep well plate, and 200 μL internal standard (acetonitrile solution containing 25 ng/mL PD0332991) was added; the resultant mixture was vortexed for 3 min at 1500 r/min, and centrifuged for 20 min at 4000 r/min; to 100 μL supernatant, 100 μL water was added; the resultant mixture was mixed homogeneously under vortexing and analyzed by LC-MS/MS.

Row | Structure (SMILES) | AUC(0-t) ([1]; 25 mg/kg) [ng·h/mL] | Cmax ([1]; 25 mg/kg) [ng/mL] | Tmax ([1]; 25 mg/kg) [h] | AUC(0-t) ([1]; 100 mg/kg) [ng·h/mL] | Cmax ([1]; 100 mg/kg) [ng/mL] | Tmax ([1]; 100 mg/kg) [h] | AUC(0-t) ([2]; 15 mg/kg) [ng·h/mL] | Cmax ([2]; 15 mg/kg) [ng/mL] | Tmax ([2]; 15 mg/kg) [h] | AUC(0-t) ([2]; 45 mg/kg) [ng·h/mL] | Cmax ([2]; 45 mg/kg) [ng/mL] | Tmax ([2]; 45 mg/kg) [h] | AUC(0-t) ([2]; 135 mg/kg) [ng·h/mL] | Cmax ([2]; 135 mg/kg) [ng/mL] | Tmax ([2]; 135 mg/kg) [h] | AUC(0-t) ([3]; 50 mg/kg) [ng·h/mL] | Cmax ([3]; 50 mg/kg) [ng/mL] | Tmax ([3]; 50 mg/kg) [h] | AUC(0-t) ([3]; 100 mg/kg) [ng·h/mL] | Cmax ([3]; 100 mg/kg) [ng/mL] | other results
1 | CCN1CCN(Cc2ccc(Nc3ncc(F)c(-c4cc(F)c5nc(C)n(C(C)C)c5c4)n3)nc2)CC1 [LY2835219, reference compound] | 9120 | 733 | 4 | 23000 | 1080 | 8 | 9690 | 504 | 4 | 32600 | 860 | 4 | 97600 | 1370 | 24 | 19400 | 1160 | 1 | 27900 | 1530 | Tmax ([3]; 100 mg/kg): 4 h
2 | CCN1CCN(Cc2cnc(Nc3cc(-c4cc(F)c5nc(C)n(C(C)C)c5c4)c(F)cn3)nc2)CC1 [Compound 1, 5-((4-ethylpiperazin-1-yl)methyl)-N-(5-fluoro-4-(4-fluoro-1-isopropyl-2-methyl-1H-benzo[d]imidazol-6-yl)pyridin-2-yl)pyrimidin-2-amine] | 12300 | 1140 | 2 | 48300 | 2420 | 8 | 12600 | 941 | 4 | 37700 | 1580 | 4 | 136000 | 2410 | 24 | 23500 | 1770 | 2 | 34800 | 2180 | linear pharmacokinetic properties ([2]; 15-135 mg/kg, AUClast increases with dose in a linear manner): good linear pharmacokinetic properties; Tmax ([3]; 100 mg/kg): 1 h; AUC(0-t) ([3]; 200 mg/kg): 49700 ng·h/mL; Cmax ([3]; 200 mg/kg): 2510 ng/mL; Tmax ([3]; 200 mg/kg): 6 h
